Data published in patent publication US9505726B2, “Substituted biphenyl amides as P2X3 and P2X2/3 antagonists” (Roche Palo Alto LLC, priority 2009, dated 2016).

Molecular target: T1, rat P2X3 receptor (Rattus norvegicus, UniProt P49654)
T1 construct: expressed in transfected cells; host or cells: CHO-K1
T1 sequence (P49654 1-397): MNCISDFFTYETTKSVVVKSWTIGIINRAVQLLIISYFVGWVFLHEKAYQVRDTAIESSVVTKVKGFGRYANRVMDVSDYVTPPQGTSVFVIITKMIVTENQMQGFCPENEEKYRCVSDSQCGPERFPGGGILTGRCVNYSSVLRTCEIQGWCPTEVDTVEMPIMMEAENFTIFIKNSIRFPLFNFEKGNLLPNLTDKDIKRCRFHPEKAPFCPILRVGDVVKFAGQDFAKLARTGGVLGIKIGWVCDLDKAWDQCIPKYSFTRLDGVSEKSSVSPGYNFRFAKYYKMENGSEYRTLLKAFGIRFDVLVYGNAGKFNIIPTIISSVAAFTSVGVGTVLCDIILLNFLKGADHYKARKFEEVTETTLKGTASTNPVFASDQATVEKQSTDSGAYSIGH
Test: P2X3 FLIPR (Fluorometric Imaging Plate Reader) assay
Format: cell-based
Settings: CHO-K1 cells transfected with cloned rat P2X3, agonist α,β-meATP 1 μM, Fluo-3 AM calcium fluorescence
Protocol: CHO-K1 cells were transfected with cloned rat P2X3 or human P2X2/3 receptor subunits and passaged in flasks. 18-24 hours before the FLIPR experiment, cells were released from their flasks, centrifuged, and resuspended in nutrient medium at 2.5×10^5 cells/ml. The cells were aliquoted into black-walled 96-well plates at a density of 50,000 cells/well and incubated overnight in 5% CO2 at 37° C. On the day of the experiment, cells were washed in FLIPR buffer (calcium- and magnesium-free Hank's balanced salt solution, 10 mM HEPES, 2 mM CaCl2, 2.5 mM probenecid; FB). Each well received 100 μl FB and 100 μl of the fluorescent dye Fluo-3 AM [2 μM final conc.]. After a 1 hour dye loading incubation at 37° C., the cells were washed 4 times with FB, and a final 75 μl/well FB was left in each well.
Test compounds (dissolved in DMSO at 10 mM and serially diluted with FB) or vehicle were added to each well (25 μl of a 4× solution) and allowed to equilibrate for 20 minutes at room temperature. The plates were then placed in the FLIPR and a baseline fluorescence measurement (excitation at 488 nm and emission at 510-570 nm) was obtained for 10 seconds before a 100 μl/well agonist or vehicle addition. The agonist was a 2X solution of α,β-meATP producing a final concentration of 1 μM (P2X3) or 5 μM (P2X2/3). Fluorescence was measured for an additional 2 minutes at 1 second intervals after agonist addition. A final addition of ionomycin (5 μM, final concentration) was made to each well of the FLIPR test plate to establish cell viability and maximum fluorescence of dye-bound cytosolic calcium. Peak fluorescence in response to the addition of α,β-meATP (in the absence and presence of test compounds) was measured and inhibition curves generated using nonlinear regression. PPADS, a standard P2X antagonist, was used as a positive control.

| Structure (SMILES) | P2X3 (pIC50 values for the P2X3 receptor) | IC50 (read-out: P2X3 (pIC50 values for the P2X3 receptor) (converted)) [µM] |
| --- | --- | --- |
| COCC(C)NC(=O)c1cc(NC(=O)c2cc(C)cs2)cc(-c2ccc(C)cc2)c1 (stereo not drawn) [Compound 1, 4-Methyl-thiophene-2-carboxylic acid [5-(2-methoxy-1-methyl-ethylcarbamoyl)-4′-methyl-biphenyl-3-yl]-amide] | 6.31 | – |
| COCC(C)NC(=O)c1cc(NC(=O)c2ccc(C)s2)cc(-c2ccc(C)cc2)c1 (stereo not drawn) [Compound 2, 5-Methyl-thiophene-2-carboxylic acid [5-(2-methoxy-1-methyl-ethylcarbamoyl)-4′-methyl-biphenyl-3-yl]-amide] | 5.2 | – |
| COCC(C)NC(=O)c1cc(NC(=O)c2ccco2)cc(-c2ccc(C)cc2)c1 (stereo not drawn) [Compound 3, Furan-2-carboxylic acid [5-(2-methoxy-1-methyl-ethylcarbamoyl)-4′-methyl-biphenyl-3-yl]-amide] | 5.66 | – |
| COCC(C)NC(=O)c1cc(NC(=O)c2cccs2)cc(-c2ccc(C)cc2)c1 (stereo not drawn) [Compound 4, Thiophene-2-carboxylic acid [5-(2-methoxy-1-methyl-ethylcarbamoyl)-4′-methyl-biphenyl-3-yl]-amide] | 5.51 | – |
| COCC(C)NC(=O)c1cc(NC(=O)c2ccccc2)cc(-c2ccc(C)cc2)c1 (stereo not drawn) [Compound 5, 5-Benzoylamino-4′-methyl-biphenyl-3-carboxylic acid (2-methoxy-1-methyl-ethyl)-amide] | 5.69 | – |
| COCC(C)NC(=O)c1cc(NC(=O)c2ccccn2)cc(-c2ccc(C)cc2)c1 (stereo not drawn) [Compound 6, Pyridine-2-carboxylic acid [5-(2-methoxy-1-methyl-ethylcarbamoyl)-4′-methyl-biphenyl-3-yl]-amide] | 5.62 | – |
| COCC(C)NC(=O)c1cc(NC(=O)C2CCCCC2)cc(-c2ccc(C)cc2)c1 (stereo not drawn) [Compound 7, 5-(Cyclohexanecarbonyl-amino)-4′-methyl-biphenyl-3-carboxylic acid (2-methoxy-1-methyl-ethyl)-amide] | 5.49 | – |
| COCC(C)NC(=O)c1cc(NC(=O)c2ccc(C)cc2C)cc(-c2ccc(C)cc2)c1 (stereo not drawn) [Compound 8, 5-(2,4-Dimethyl-benzoylamino)-4′-methyl-biphenyl-3-carboxylic acid (2-methoxy-1-methyl-ethyl)-amide] | 5.35 | – |
| COCC(C)NC(=O)c1cc(NC(=O)c2ccc(F)cc2Cl)cc(-c2ccc(C)cc2)c1 (stereo not drawn) [Compound 9, 5-(2-Chloro-4-fluoro-benzoylamino)-4′-methyl-biphenyl-3-carboxylic acid (2-methoxy-1-methyl-ethyl)-amide] | 5.44 | – |
| COCC(C)NC(=O)c1cc(NC(=O)c2ccc(C(F)(F)F)cc2Cl)cc(-c2ccc(C)cc2)c1 (stereo not drawn) [Compound 10, 5-(2-Chloro-4-trifluoromethyl-benzoylamino)-4′-methyl-biphenyl-3-carboxylic acid (2-methoxy-1-methyl-ethyl)-amide] | 5.87 | – |
| COCC(C)NC(=O)c1cc(NC(=O)c2cscn2)cc(-c2ccc(C)cc2)c1 (stereo not drawn) [Compound 11, Thiazole-4-carboxylic acid [5-(2-methoxy-1-methyl-ethylcarbamoyl)-4′-methyl-biphenyl-3-yl]-amide] | 5.56 | – |
| COCC(C)NC(=O)c1cc(NC(=O)c2c(-c3ccccc3)noc2C)cc(-c2ccc(C)cc2)c1 (stereo not drawn) [Compound 12, 5-Methyl-3-phenyl-isoxazole-4-carboxylic acid [5-(2-methoxy-1-methyl-ethylcarbamoyl)-4′-mcthyl-biphenyl-3-yl]-amide] | 5.59 | – |
| COCC(C)NC(=O)c1cc(NC(=O)c2nc(C)oc2C)cc(-c2ccc(C)cc2)c1 (stereo not drawn) [Compound 13, 2,5-Dimethyl-oxazole-4-carboxylic acid [5-(2-methoxy-1-methyl-ethylcarbamoyl)-4′-methyl-biphenyl-3-yl]-amide] | 5.93 | – |
| COCC(C)NC(=O)c1cc(NC(=O)c2sccc2C)cc(-c2ccc(C)cc2)c1 (stereo not drawn) [Compound 14, 3-Methyl-thiophene-2-carboxylic acid [5-(2-methoxy-1-methyl-ethylcarbamoyl)-4′-methyl-biphenyl-3-yl]-amide] | 5.35 | – |
| COCC(C)NC(=O)c1cc(NC(=O)c2cc(C)nn2C)cc(-c2ccc(C)cc2)c1 (stereo not drawn) [Compound 15, 2,5-Dimethyl-2H-pyrazole-3-carboxylic acid [5-(2-methoxy-1-methyl-ethylcarbamoyl)-4′-methyl-biphenyl-3-yl]-amide] | 5.34 | – |
| COCC(C)NC(=O)c1cc(NC(=O)c2cc(C)on2)cc(-c2ccc(C)cc2)c1 (stereo not drawn) [Compound 16, 5-Methyl-isoxazole-3-carboxylic acid [5-(2-methoxy-1-methyl-ethylcarbamoyl)-4′-methyl-biphenyl-3-yl]-amide] | 5.4 | – |
| COCC(C)NC(=O)c1cc(NC(=O)c2cscc2OC)cc(-c2ccc(C)cc2)c1 (stereo not drawn) [Compound 17, 4-Methoxy-thiophene-3-carboxylic acid [5-(2-methoxy-1-methyl-ethylcarbamoyl)-4′-methyl-biphenyl-3-yl]-amide] | 5.87 | – |
| CCC(=O)N(C)c1cc(C(=O)NC(C)COC)cc(-c2ccc(C)cc2)c1 (stereo not drawn) [Compound 18, 4′-Methyl-5-(methyl-propionyl-amino)-biphenyl-3-carboxylic acid (2-methoxy-1-methyl-ethyl)-amide] | 5.35 | – |
| CCC(=O)N(C)c1cc(C(=O)N[C@H](C)CN2CCOCC2)cc(-c2ccc(C)cc2)c1 [Compound 19, 4′-Methyl-5-(methyl-propionyl-amino)-biphenyl-3-carboxylic acid ((R)-1-methyl-2-morpholin-4-yl-ethyl)-amide] | 6.88 | – |
| CC(=O)N(C)c1cc(C(=O)NC(C)c2cnccn2)cc(-c2ccc(C)cc2)c1 (stereo not drawn) [Compound 20, 5-(Acetyl-methyl-amino)-4′-methyl-biphenyl-3-carboxylic acid (1-pyrazin-2-yl-ethyl)-amide] | 6.05 | – |
| CCN(C(C)=O)c1cc(C(=O)NC(C)c2cnccn2)cc(-c2ccc(C)cc2)c1 (stereo not drawn) [Compound 21, 5-(Acetyl-ethyl-amino)-4′-methyl-biphenyl-3-carboxylic acid (1-pyrazin-2-yl-ethyl)-amide] | 7.28 | – |
| COCC(=O)N(C)c1cc(C(=O)NC(C)c2cnccn2)cc(-c2ccc(C)cc2)c1 (stereo not drawn) [Compound 22, 5-[(2-Methoxy-acetyl)-methyl-amino]-4′-methyl-biphenyl-3-carboxylic acid (1-pyrazin-2-yl-ethyl)-amide] | 6.69 | – |
| CCN(C(=O)COC)c1cc(C(=O)NC(C)c2cnccn2)cc(-c2ccc(C)cc2)c1 (stereo not drawn) [Compound 23, 5-[Ethyl-(2-methoxy-acetyl)-amino]-4′-methyl-biphenyl-3-carboxylic acid (1-pyrazin-2-yl-ethyl)-amide] | 6.5 | – |
| CC(=O)N(c1cc(C(=O)NC(C)c2cnccn2)cc(-c2ccc(C)cc2)c1)c1ccncn1 (stereo not drawn) [Compound 24, 5-(Acetyl-pyrimidin-4-yl-amino)-4′-methyl-biphenyl-3-carboxylic acid (1-pyrazin-2-yl-ethyl)-amide] | 6.31 | – |
| CCC(=O)N(c1cc(C(=O)NC(C)c2cnccn2)cc(-c2ccc(C)cc2)c1)c1ccncn1 (stereo not drawn) [Compound 25, 4′-Methyl-5-(propionyl-pyrimidin-4-yl-amino)-biphenyl-3-carboxylic acid (1-pyrazin-2-yl-ethyl)-amide] | 6.16 | – |
| Cc1ccc(-c2cc(C(=O)NC(C)c3cnccn3)cc(N(C(=O)C(C)C)c3ccncn3)c2)cc1 (stereo not drawn) [Compound 26, 5-(Isobutyryl-pyrimidin-4-yl-amino)-4′-methyl-biphenyl-3-carboxylic acid (1-pyrazin-2-yl-ethyl)-amide] | 6.99 | – |
| CCN(C(=O)c1cnccn1)c1cc(C(=O)NC(C)c2cnccn2)cc(-c2ccc(C)cc2)c1 (stereo not drawn) [Compound 27, Pyrazine-2-carboxylic acid ethyl-[4′-methyl-5-(1-pyrazin-2-yl-ethylcarbamoyl)-biphenyl-3-yl]-amide] | – | 4.47 |
